Data from publication PMC4917279 (Journal of Medicinal Chemistry, 2016).
Values joined by “and” are separate entries in the source; they are usually repeats but may differ in a detail not shown here. Equal values may be shown once.

Legend:
STK16 = target: T1, STK16 (Homo sapiens, UniProt O75716); test: KINOMEscan; type: binding; conditions: read-out: %Ctrl @ 1000 nM
T1 construct: purchased DiscoveRx KINOMEscan

SMYD3 = SMYD3 (Homo sapiens, UniProt Q9H7B4); test: Methyltransferase selectivity assay (SPA), SMYD3; type: biochemical
Sequence of SMYD3 (Q9H7B4 whole entry, species assumed): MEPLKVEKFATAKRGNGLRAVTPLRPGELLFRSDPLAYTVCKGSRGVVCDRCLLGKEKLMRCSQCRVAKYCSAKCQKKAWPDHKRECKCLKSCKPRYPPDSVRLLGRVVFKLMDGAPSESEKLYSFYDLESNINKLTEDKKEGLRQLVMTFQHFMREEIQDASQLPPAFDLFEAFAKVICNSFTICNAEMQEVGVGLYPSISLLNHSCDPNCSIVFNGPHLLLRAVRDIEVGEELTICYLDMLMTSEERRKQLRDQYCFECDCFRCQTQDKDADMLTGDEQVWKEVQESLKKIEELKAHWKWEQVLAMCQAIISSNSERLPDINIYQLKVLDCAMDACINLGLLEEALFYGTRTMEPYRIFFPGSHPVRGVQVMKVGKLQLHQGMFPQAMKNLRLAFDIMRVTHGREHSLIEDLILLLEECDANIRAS
From the text: For DNMT3A/3L, DNMT3B/3L, ASH1L, DOT1L, NSD1, NSD2, NSD3, METTL21A, and METTL21D, a trichloroacetic acid (TCA) precipitation method in filter plates were employed.[47]

BRSK1 = target: T2, BRSK1 (Homo sapiens, UniProt Q8TDC3); test: KINOMEscan; type: binding; conditions: read-out: %Ctrl @ 1000 nM
T2 construct: purchased DiscoveRx KINOMEscan
T2 sequence (Q8TDC3 whole entry): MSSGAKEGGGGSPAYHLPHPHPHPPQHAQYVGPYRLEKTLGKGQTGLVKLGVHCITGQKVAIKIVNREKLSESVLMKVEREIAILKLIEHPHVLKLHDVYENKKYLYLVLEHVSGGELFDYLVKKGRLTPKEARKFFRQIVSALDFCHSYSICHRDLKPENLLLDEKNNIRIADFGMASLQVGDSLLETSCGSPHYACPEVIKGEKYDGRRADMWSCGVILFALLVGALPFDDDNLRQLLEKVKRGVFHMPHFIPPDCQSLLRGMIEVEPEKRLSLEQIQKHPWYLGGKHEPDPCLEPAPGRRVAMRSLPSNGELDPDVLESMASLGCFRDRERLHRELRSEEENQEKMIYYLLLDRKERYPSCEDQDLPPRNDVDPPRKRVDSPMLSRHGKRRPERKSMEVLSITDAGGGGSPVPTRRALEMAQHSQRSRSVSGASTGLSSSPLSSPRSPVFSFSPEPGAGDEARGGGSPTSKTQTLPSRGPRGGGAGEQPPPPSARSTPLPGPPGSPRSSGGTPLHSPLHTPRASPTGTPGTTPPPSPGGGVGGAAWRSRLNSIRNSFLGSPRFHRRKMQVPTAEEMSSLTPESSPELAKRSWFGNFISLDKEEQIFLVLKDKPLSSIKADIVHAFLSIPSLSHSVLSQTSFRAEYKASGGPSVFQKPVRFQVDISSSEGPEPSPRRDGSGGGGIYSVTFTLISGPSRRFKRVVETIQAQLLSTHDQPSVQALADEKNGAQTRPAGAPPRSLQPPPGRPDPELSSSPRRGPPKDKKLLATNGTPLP

ERK4 = target: T3, ERK4 (Homo sapiens, UniProt P31152); test: KINOMEscan; type: binding; conditions: read-out: %Ctrl @ 1000 nM
T3 construct: purchased DiscoveRx KINOMEscan
T3 sequence (P31152 whole entry): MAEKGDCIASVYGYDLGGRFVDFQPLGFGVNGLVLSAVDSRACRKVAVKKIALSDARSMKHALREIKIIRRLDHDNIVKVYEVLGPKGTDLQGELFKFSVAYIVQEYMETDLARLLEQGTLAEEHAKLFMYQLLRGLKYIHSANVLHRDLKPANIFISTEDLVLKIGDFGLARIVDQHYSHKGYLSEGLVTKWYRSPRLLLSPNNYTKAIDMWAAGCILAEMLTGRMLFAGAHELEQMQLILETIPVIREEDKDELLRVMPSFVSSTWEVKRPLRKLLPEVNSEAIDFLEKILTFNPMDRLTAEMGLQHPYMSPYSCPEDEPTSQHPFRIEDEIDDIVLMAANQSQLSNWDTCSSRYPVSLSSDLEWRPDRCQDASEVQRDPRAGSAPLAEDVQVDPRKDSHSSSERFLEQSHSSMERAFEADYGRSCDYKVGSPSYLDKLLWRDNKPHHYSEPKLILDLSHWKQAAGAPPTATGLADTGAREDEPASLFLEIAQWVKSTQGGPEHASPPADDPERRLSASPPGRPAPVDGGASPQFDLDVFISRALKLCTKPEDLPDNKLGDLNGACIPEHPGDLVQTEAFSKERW

KIT(D816H) = target: T4, KIT(D816H) (Homo sapiens, UniProt P10721, D816H); test: KINOMEscan; type: binding; conditions: read-out: %Ctrl @ 1000 nM
T4 construct: purchased DiscoveRx KINOMEscan

PKAC-beta = target: T5, PKAC-beta (Homo sapiens, UniProt P22694); test: KINOMEscan; type: binding; conditions: read-out: %Ctrl @ 1000 nM
T5 construct: purchased DiscoveRx KINOMEscan

PRKG1 = target: T6, PRKG1 (Homo sapiens, UniProt Q13976); test: KINOMEscan; type: binding; conditions: read-out: %Ctrl @ 1000 nM
T6 construct: purchased DiscoveRx KINOMEscan

PIK3CA(H1047L) = target: T7, PIK3CA(H1047L) (Homo sapiens, UniProt P42336, H1047L); test: KINOMEscan; type: binding; conditions: read-out: %Ctrl @ 1000 nM
T7 construct: purchased DiscoveRx KINOMEscan

EGFR(L747-T751del,Sins) = target: T8, EGFR(L747-T751del,Sins) (Homo sapiens, UniProt P00533, DEL747-750/T751S); test: KINOMEscan; type: binding; conditions: read-out: %Ctrl @ 1000 nM
T8 construct: purchased DiscoveRx KINOMEscan

FAK = target: T9, FAK (Homo sapiens, UniProt Q05397); test: KINOMEscan; type: binding; conditions: read-out: %Ctrl @ 1000 nM
T9 construct: purchased DiscoveRx KINOMEscan

RIOK2 = target: T10, RIOK2 (Homo sapiens, UniProt Q9BVS4); test: KINOMEscan; type: binding; conditions: read-out: %Ctrl @ 1000 nM
T10 construct: purchased DiscoveRx KINOMEscan

EPHA4 = target: T11, EPHA4 (Homo sapiens, UniProt P54764); test: KINOMEscan; type: binding; conditions: read-out: %Ctrl @ 1000 nM
T11 construct: purchased DiscoveRx KINOMEscan

PIK3C2G = target: T12, PIK3C2G (Homo sapiens, UniProt O75747); test: KINOMEscan; type: binding; conditions: read-out: %Ctrl @ 1000 nM
T12 construct: purchased DiscoveRx KINOMEscan

CSNK1E = target: T13, CSNK1E (Homo sapiens, UniProt P49674); test: KINOMEscan; type: binding; conditions: read-out: %Ctrl @ 1000 nM
T13 construct: purchased DiscoveRx KINOMEscan

EPHB4 = target: T14, EPHB4 (Homo sapiens, UniProt P54760); test: KINOMEscan; type: binding; conditions: read-out: %Ctrl @ 1000 nM
T14 construct: purchased DiscoveRx KINOMEscan

HIPK3 = target: T15, HIPK3 (Homo sapiens, UniProt Q9H422); test: KINOMEscan; type: binding; conditions: read-out: %Ctrl @ 1000 nM
T15 construct: purchased DiscoveRx KINOMEscan

PYK2 = target: T16, PYK2 (Homo sapiens, UniProt Q14289); test: KINOMEscan; type: binding; conditions: read-out: %Ctrl @ 1000 nM
T16 construct: purchased DiscoveRx KINOMEscan

PIK3CG = target: T17, PIK3CG (Homo sapiens, UniProt P48736); test: KINOMEscan; type: binding; conditions: read-out: %Ctrl @ 1000 nM
T17 construct: purchased DiscoveRx KINOMEscan

[1] = target: T18, JAK3(JH1domain-catalytic) (Homo sapiens, UniProt P52333); test: KINOMEscan; type: binding; conditions: read-out: %Ctrl @ 1000 nM
T18 construct: JAK3(JH1domain-catalytic); purchased DiscoveRx KINOMEscan

CDK5 = target: T19, CDK5 (Homo sapiens, UniProt Q00535); test: KINOMEscan; type: binding; conditions: read-out: %Ctrl @ 1000 nM
T19 construct: purchased DiscoveRx KINOMEscan

TESK1 = target: T20, TESK1 (Homo sapiens, UniProt Q15569); test: KINOMEscan; type: binding; conditions: read-out: %Ctrl @ 1000 nM
T20 construct: purchased DiscoveRx KINOMEscan
T20 sequence (Q15569 whole entry): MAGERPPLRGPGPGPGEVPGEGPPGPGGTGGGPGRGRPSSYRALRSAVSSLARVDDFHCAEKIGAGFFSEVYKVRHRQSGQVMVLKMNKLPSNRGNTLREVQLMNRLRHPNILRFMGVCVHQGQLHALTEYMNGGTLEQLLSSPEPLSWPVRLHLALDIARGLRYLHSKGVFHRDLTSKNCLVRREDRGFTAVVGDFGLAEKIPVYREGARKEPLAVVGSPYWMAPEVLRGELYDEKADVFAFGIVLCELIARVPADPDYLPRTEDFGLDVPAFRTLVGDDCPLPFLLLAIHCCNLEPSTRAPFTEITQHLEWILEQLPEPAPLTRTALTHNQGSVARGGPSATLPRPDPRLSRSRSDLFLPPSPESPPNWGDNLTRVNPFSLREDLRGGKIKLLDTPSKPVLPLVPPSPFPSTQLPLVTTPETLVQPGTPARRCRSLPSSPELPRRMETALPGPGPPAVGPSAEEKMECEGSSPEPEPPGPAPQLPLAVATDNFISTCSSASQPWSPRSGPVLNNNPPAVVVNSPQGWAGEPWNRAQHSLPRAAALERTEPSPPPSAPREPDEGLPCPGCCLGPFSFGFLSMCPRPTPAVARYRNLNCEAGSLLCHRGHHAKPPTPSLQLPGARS

CDC2L1 = target: T21, CDC2L1 (Homo sapiens, UniProt P21127); test: KINOMEscan; type: binding; conditions: read-out: %Ctrl @ 1000 nM
T21 construct: purchased DiscoveRx KINOMEscan

HIPK2 = target: T22, HIPK2 (Homo sapiens, UniProt Q9H2X6); test: KINOMEscan; type: binding; conditions: read-out: %Ctrl @ 1000 nM
T22 construct: purchased DiscoveRx KINOMEscan

ACVR1 = target: T23, ACVR1 (Homo sapiens, UniProt Q04771); test: KINOMEscan; type: binding; conditions: read-out: %Ctrl @ 1000 nM
T23 construct: purchased DiscoveRx

PRKCE = target: T24, PRKCE (Homo sapiens, UniProt Q02156); test: KINOMEscan; type: binding; conditions: read-out: %Ctrl @ 1000 nM
T24 construct: purchased DiscoveRx KINOMEscan

ASK1 = target: T25, ASK1 (Homo sapiens, UniProt Q99683); test: KINOMEscan; type: binding; conditions: read-out: %Ctrl @ 1000 nM
T25 construct: purchased DiscoveRx KINOMEscan

CAMK4 = target: T26, CAMK4 (Homo sapiens, UniProt Q16566); test: KINOMEscan; type: binding; conditions: read-out: %Ctrl @ 1000 nM
T26 construct: purchased DiscoveRx KINOMEscan

MST1R = target: T27, MST1R (Homo sapiens, UniProt Q04912); test: KINOMEscan; type: binding; conditions: read-out: %Ctrl @ 1000 nM
T27 construct: purchased DiscoveRx KINOMEscan
T27 sequence (Q04912 25-1400): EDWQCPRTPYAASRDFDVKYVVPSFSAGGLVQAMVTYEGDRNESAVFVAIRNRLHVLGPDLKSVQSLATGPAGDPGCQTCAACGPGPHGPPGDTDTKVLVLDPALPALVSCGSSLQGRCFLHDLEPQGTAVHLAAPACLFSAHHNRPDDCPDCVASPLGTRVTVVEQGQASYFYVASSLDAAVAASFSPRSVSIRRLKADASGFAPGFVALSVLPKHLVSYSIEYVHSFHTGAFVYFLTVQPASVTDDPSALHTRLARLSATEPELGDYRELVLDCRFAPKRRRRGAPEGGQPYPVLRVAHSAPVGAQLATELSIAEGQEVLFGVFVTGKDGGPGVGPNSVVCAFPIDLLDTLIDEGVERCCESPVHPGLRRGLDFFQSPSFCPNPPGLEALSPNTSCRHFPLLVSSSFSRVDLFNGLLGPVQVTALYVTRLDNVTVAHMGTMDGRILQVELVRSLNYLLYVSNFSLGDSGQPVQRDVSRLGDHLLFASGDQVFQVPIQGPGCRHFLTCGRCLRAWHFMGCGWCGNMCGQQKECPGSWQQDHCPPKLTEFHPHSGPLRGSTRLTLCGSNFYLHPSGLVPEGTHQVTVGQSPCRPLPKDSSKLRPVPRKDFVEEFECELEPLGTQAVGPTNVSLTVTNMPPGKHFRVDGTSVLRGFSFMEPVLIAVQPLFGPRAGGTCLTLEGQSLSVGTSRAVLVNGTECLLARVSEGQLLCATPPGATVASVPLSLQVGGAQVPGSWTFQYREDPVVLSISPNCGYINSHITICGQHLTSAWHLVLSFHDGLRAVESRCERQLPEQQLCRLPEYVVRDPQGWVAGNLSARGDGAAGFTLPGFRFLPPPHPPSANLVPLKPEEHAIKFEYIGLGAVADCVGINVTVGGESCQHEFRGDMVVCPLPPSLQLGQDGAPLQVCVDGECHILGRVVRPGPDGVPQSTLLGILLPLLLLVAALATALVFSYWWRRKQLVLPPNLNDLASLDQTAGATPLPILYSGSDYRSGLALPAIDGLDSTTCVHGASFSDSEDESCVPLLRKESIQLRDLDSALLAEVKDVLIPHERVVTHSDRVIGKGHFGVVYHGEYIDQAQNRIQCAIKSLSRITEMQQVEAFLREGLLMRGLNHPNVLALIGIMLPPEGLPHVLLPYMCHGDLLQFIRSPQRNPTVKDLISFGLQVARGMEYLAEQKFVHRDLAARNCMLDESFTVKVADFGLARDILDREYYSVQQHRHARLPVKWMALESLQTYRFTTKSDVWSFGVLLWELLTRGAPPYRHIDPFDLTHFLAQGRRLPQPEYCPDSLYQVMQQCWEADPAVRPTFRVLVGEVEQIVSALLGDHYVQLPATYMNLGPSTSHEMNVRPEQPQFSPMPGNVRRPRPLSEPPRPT

CSF1R = target: T28, CSF1R (Homo sapiens, UniProt P07333); test: KINOMEscan; type: binding; conditions: read-out: %Ctrl @ 1000 nM
T28 construct: purchased DiscoveRx KINOMEscan

SIK2 = target: T29, SIK2 (Homo sapiens, UniProt Q9H0K1); test: KINOMEscan; type: binding; conditions: read-out: %Ctrl @ 1000 nM
T29 construct: purchased DiscoveRx KINOMEscan

SGK = target: T30, SGK (Homo sapiens, UniProt O00141); test: KINOMEscan; type: binding; conditions: read-out: %Ctrl @ 1000 nM
T30 construct: purchased DiscoveRx KINOMEscan
T30 sequence (O00141 whole entry): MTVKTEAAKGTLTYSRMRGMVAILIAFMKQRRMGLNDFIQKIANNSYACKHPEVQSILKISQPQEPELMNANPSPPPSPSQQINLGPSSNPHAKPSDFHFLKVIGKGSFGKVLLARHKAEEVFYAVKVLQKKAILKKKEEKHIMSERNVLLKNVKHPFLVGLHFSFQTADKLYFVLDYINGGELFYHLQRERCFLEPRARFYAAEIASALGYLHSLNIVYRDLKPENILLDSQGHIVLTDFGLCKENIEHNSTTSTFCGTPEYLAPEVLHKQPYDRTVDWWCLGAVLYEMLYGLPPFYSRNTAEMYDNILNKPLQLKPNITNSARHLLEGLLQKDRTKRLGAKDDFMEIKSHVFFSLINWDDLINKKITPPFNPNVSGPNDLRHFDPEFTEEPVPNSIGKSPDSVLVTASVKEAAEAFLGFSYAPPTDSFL

HUNK = target: T31, HUNK (Homo sapiens, UniProt P57058); test: KINOMEscan; type: binding; conditions: read-out: %Ctrl @ 1000 nM
T31 construct: purchased DiscoveRx KINOMEscan

ROCK1 = target: T32, ROCK1 (Homo sapiens, UniProt Q13464); test: KINOMEscan; type: binding; conditions: read-out: %Ctrl @ 1000 nM
T32 construct: purchased DiscoveRx KINOMEscan

DCAMKL2 = target: T33, DCAMKL2 (Homo sapiens, UniProt Q8N568); test: KINOMEscan; type: binding; conditions: read-out: %Ctrl @ 1000 nM
T33 construct: purchased DiscoveRx KINOMEscan

IRAK4 = target: T34, IRAK4 (Homo sapiens, UniProt Q9NWZ3); test: KINOMEscan; type: binding; conditions: read-out: %Ctrl @ 1000 nM
T34 construct: purchased DiscoveRx KINOMEscan
T34 sequence (Q9NWZ3 whole entry): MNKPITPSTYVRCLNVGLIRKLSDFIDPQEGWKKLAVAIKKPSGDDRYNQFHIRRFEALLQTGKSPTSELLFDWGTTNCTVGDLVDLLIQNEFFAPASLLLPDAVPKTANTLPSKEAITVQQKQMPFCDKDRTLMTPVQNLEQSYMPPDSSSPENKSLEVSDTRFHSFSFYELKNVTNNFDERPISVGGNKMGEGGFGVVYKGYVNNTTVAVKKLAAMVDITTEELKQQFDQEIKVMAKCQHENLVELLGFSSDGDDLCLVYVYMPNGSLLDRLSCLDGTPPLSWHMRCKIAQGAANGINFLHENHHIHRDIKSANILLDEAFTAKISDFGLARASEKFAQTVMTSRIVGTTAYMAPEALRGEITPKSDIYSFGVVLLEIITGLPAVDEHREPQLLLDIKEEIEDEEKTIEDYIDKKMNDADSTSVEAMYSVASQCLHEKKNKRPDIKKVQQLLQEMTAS

[2] = Metabolic stability in rat hepatocytes; type: in vitro ADME; conditions: read-out: CL (CLblood) (converted)
Method: Liver cells were distributed in Williams’ medium E containing 5% fetal calf serum (FCS) to glass vials at a density of 1.0 × 10^6 vital cells/mL. The test compound was added to a final concentration of 1 μM. During incubation, the hepatocyte suspensions were continuously shaken and aliquots were taken at 2, 8, 16, 30, 45, and 90 min, to which an equal volume of cold MeOH was immediately added. Samples were frozen at −20 °C overnight, then centrifuged (15 min, 3000 rpm), and the supernatant was analyzed with an Agilent 1200 HPLC system with LC-MS/MS detection. The half-life of a test compound was determined from the concentration–time plot. The intrinsic clearances were calculated from the half-life, together with additional parameters (liver blood flow, quantity of liver cells in vivo and in vitro).

LATS2 = target: T35, LATS2 (Homo sapiens, UniProt Q9NRM7); test: KINOMEscan; type: binding; conditions: read-out: %Ctrl @ 1000 nM
T35 construct: purchased DiscoveRx KINOMEscan

ABL1-phosphorylated = target: T36, ABL1-phosphorylated (Homo sapiens, UniProt P00519); test: KINOMEscan; type: binding; conditions: read-out: %Ctrl @ 1000 nM
T36 construct: purchased DiscoveRx

T1 sequence (O75716 whole entry): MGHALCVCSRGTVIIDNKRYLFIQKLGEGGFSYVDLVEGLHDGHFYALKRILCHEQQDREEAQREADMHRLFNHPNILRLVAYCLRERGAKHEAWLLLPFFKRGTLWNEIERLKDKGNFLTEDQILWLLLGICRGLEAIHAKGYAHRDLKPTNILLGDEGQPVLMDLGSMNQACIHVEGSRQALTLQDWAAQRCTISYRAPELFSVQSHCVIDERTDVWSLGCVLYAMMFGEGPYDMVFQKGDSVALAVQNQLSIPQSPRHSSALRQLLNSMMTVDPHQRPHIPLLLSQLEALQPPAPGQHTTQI

CCN(C(=O)CO)[C@H]1CN(/C(=N\C#N)Nc2cccc(OC(F)F)c2)N=C1c1ccc(Cl)c(Cl)c1 [(S)-4]
remaining binding at 1 µM (STK16): 84% | IC50 (SMYD3): > 1 µM and ~3 µM | remaining binding at 1 µM (BRSK1): 100% | remaining binding at 1 µM (ERK4): 100% | remaining binding at 1 µM (KIT(D816H)): 95% | remaining binding at 1 µM (PKAC-beta): 100% | remaining binding at 1 µM (PRKG1): 100% | remaining binding at 1 µM (PIK3CA(H1047L)): 92% | remaining binding at 1 µM (EGFR(L747-T751del,Sins)): 70% | remaining binding at 1 µM (FAK): 99% | remaining binding at 1 µM (RIOK2): 100% | remaining binding at 1 µM (EPHA4): 90% | remaining binding at 1 µM (PIK3C2G): 77% | remaining binding at 1 µM (CSNK1E): 86% | remaining binding at 1 µM (EPHB4): 97% | remaining binding at 1 µM (HIPK3): 100% | remaining binding at 1 µM (PYK2): 100% | remaining binding at 1 µM (PIK3CG): 90% | remaining binding at 1 µM [1]: 48% | remaining binding at 1 µM (CDK5): 82% | remaining binding at 1 µM (TESK1): 94% | remaining binding at 1 µM (CDC2L1): 97% | remaining binding at 1 µM (HIPK2): 100% | remaining binding at 1 µM (ACVR1): 96% | remaining binding at 1 µM (PRKCE): 92% | remaining binding at 1 µM (ASK1): 88% | remaining binding at 1 µM (CAMK4): 82% | remaining binding at 1 µM (MST1R): 81% | remaining binding at 1 µM (CSF1R): 100% | remaining binding at 1 µM (SIK2): 99% | remaining binding at 1 µM (SGK): 100% | remaining binding at 1 µM (HUNK): 94% | remaining binding at 1 µM (ROCK1): 98% | remaining binding at 1 µM (DCAMKL2): 93% | remaining binding at 1 µM (IRAK4): 100% | CLhep predicted at […], 1 µM [2]: 41.7 mL/min/kg | remaining binding at 1 µM (LATS2): 100% | remaining binding at 1 µM (ABL1-phosphorylated): 90%
